{"source": "patent US11925650B2", "about": "“Antibacterial chemical compound, its manufacturing method and its use thereof” (National Taiwan University, priority 2022, dated 2024)", "key": {"[1]": {"test_system": "intracellular Salmonella in RAW264.7 cells", "experiment": "Intracellular Salmonella with cefixime or ciprofloxacin alone or combined with SW14 (HCA)", "format": "cell-based", "conditions": "0.5 μM SW14 combined with CFM or CIP, 24 hours", "experimental": "FIG. 4. Salmonella-infected RAW264.7 cells treated with (A) 0.25, 0.5, 1, 2, and 4 mg/L of cefixime (CFM) and (B) 0.03, 0.06, 0.125, 0.25, and 0.5 mg/L of ciprofloxacin (CIP) alone or in combination with 0.5 μM SW14. After 24 hours, the relative numbers of intracellular bacteria were determined using HCA and the results are expressed as relative fluorescence units (RFU)."}, "[2]": {"test_system": "ROS levels in infected macrophages", "experiment": "ROS production in Salmonella-infected RAW264.7 cells (H2DCFDA)", "format": "cell-based", "conditions": "1 hour; SW14 at concentrations up to 8 μM", "experimental": "FIG. 10. […] The viabilities of intracellular Salmonella in RAW264.7 cells treated with SW14 with/without the ROS scavengers N-acetyl-cysteine (NAC; 10 mM) or glutathione (GSH; 10 mM) are assessed using HCA. […] Salmonella-infected RAW264.7 cells are loaded with 25 μM H2DCFDA for 45 min followed by treatment with SW14 or PMA at various concentrations. […] S. Typhimurium ATCC 14028 is treated with H2O2 alone or in combination with SW14 (0.5 μM) in (C) LB or (D) LPM for 1 hour followed by evaluation by the CFU assay to determine bacterial viability."}, "[3]": {"test_system": "multidrug-resistant S. typhimurium NL08.10 and 0911R", "conditions": "SW14 0.3-10 μM with gentamicin, 24 h", "experimental": "(§1) FIG. 5. RAW264.7 cells infected with (A) multidrug-resistant strains of S. Typhimurium ATCC 14028, NL08., and 100911R or (B) ciprofloxacin-resistant strains of S. typhimurium ATCC 14028, SA10, and SB10 followed by treatment with 0, 0.3, 1, 3, and 10 μM of SW14 combined with […] gentamicin for 24 h. The relative numbers of intracellular bacteria were determined using HCA and the results are expressed as relative fluorescence units (RFU)."}, "RAW264.7": {"test_system": "RAW264.7", "experiment": "Cytotoxicity in RAW264.7 cells (HCA, MTT cell viability assay)", "format": "cell-based", "conditions": "Mus musculus, RAW264.7, read-out: IC50 (μM) RAW264.7", "quoted_text": "The cell viability was evaluated using HCA and an MTT cell viability assay, and the data are expressed as a percentage relative to the untreated control and are presented as the mean±SD (n=3 per group)."}, "S. typhimurium": {"test_system": "S. typhimurium", "experiment": "Bacterial growth in medium (OD600)", "format": "cell-based", "conditions": "LB medium and macrophage culture medium, concentrations up to 64 μM, 24 hours", "experimental": "FIG. 6. The growth of S. typhimurium in LB medium, cell culture medium (CCM), or LPM medium containing 0, 0.5, and 64 μM of SW14 monitored by measuring the OD600 of each bacterial culture at designated times for a total of 24 h."}, "[4]": {"test_system": "intracellular Salmonella in RAW264.7 cells", "experiment": "Intracellular Salmonella viability with autophagy inhibitor 3-MA (HCA)", "format": "cell-based, S. typhimurium", "experimental": "FIG. 7. Infected RAW264.7 cells treated with 10 mM of 3-MA for 1 h followed by 0.5 μM of SW14 or mock (DMSO) treatment for 24 hours.\nAutophagy was originally characterized as a cellular response to stress, but has been considered to be a defense mechanism to combat host cell infection by intracellular Salmonella. Therefore, to evaluated the role of autophagy in SW14's anti-intracellular Salmonella activity, infected cells are treated with 3-MA, an autophagy inhibitor to block cellular autophagy then followed by treatment with SW14 for 24 h. […] Compared to mock-treated cells, the viability of intracellular Salmonella in cells treated with SW14 or the combination of 3-MA and SW14 were 45% and 36.8%, respectively."}, "[5]": {"test_system": "S. Typhimurium ATCC 14028", "experiment": "Bacterial susceptibility to H2O2 (CFU assay)", "format": "cell-based, Salmonella Typhimurium", "conditions": "1 hour", "experimental": "(§2) FIG. 10. SW14 sensitizing outer membrane-compromised S. typhimurium to oxidative stress. (A) ROS scavengers reversed the suppressive effects of SW14 on intracellular S. typhimurium. The viabilities of intracellular Salmonella in RAW264.7 cells treated with SW14 with/without the ROS scavengers N-acetyl-cysteine (NAC; 10 mM) or glutathione (GSH; 10 mM) are assessed using HCA. […] Salmonella-infected RAW264.7 cells are loaded with 25 μM H2DCFDA for 45 min followed by treatment with SW14 or PMA at various concentrations. […] S. Typhimurium ATCC 14028 is treated with H2O2 alone or in combination with SW14 (0.5 μM) in (C) LB or (D) LPM for 1 hour followed by evaluation by the CFU assay to determine bacterial viability.\nNext, the effects of SW14 on bacterial resistance to ROS are investigated."}, "[6]": {"test_system": "intracellular Salmonella in Atg7 knockdown RAW264.7 cells", "experiment": "Intracellular bacterial survival in RAW264.7 cells with Atg7 knockdown (HCA)", "format": "cell-based, S. typhimurium", "conditions": "shRNA Atg7 knockdown RAW264.7 cells, SW14 0.3 and 1 μM, 24 hours", "excerpt": "FIG. 8. RAW264.7 cells transfected with a plasmid to express shRNA targeting Atg7 (shATG7). The levels of the Atg7 protein in the stable transfectants as determined by immunoblotting. Bands for Atg7 were quantified by densitometry and normalized to those of β-actin. Percentages represent the relative expression levels of Atg7 in the shATG7 transfectants compared to the vector transfectants.\nFIG. 9. Intracellular bacterial survival in SW14-treated RAW264.7 cells with shRNA-mediated knockdown of Atg7 expression. RAW264.7 cells were transfected with the empty vector (Vec) and infected with S. typhimurium followed by treatment with 0, 0.3, and 1 μM of SW14 and […] gentamicin for 24 hours. The numbers of surviving intracellular bacteria are determined by HCA and the results are expressed as a percentage of the control group. Data shown are the means; error bars represent the SD (n=3). ns: non-significant, P>0.05; *P<0.05 for the differences between the drug-treated groups and their respective control groups."}, "[7]": {"test_system": "ciprofloxacin-resistant strain SA10 and SB10", "conditions": "SA10 and SB10, SW14 0.3-10 μM with gentamicin, 24 h", "experimental": "as §1\nThen extended the investigation to S. typhimurium isolates with resistance to ciprofloxacin."}, "S. Typhimurium 14028": {"test_system": "S. Typhimurium 14028", "experiment": "Anti-intracellular Salmonella activity in infected RAW264.7 cells (HCA)", "format": "cell-based, Salmonella Typhimurium"}, "[8]": {"test_system": "S. Typhimurium within macrophages", "experiment": "Intracellular Salmonella viability with ROS scavengers (HCA)", "format": "cell-based, Salmonella Typhimurium", "conditions": "NAC 10 mM or GSH 10 mM", "experimental": "as §2\nOxidative stress is another innate defense system in host cells that controls intracellular Salmonella infection. In FIG. 10(A), the suppressive effects of SW14 against S. Typhimurium within macrophages are reversed in the presence of two ROS scavengers, N-acetyl cysteine (NAC) and glutathione (GSH)."}, "[9]": {"test_system": "intracellular Salmonella in RAW264.7 cells", "experiment": "Intracellular bacteria survival, colony-forming unit assay", "conditions": "sub-micromolar concentrations, gentamicin 20 mg/L, 24 h", "quoted_text": "The intracellular bacteria survival was assessed using HCA and a CFU assay, and the data are expressed as a percentage relative to the untreated control and are presented as the mean±SD (n=3 per group)."}}, "note": "Where two headings read alike, the source gives them in different places.", "data": [{"smiles": "Clc1ccc2c(c1)C(NCCN1CCNCC1)=Nc1ccccc1O2", "note": "[SW14, 2-chloro-N-(2-(piperazin-1-yl)ethyl)dibenzo[b,f][1,4]oxazepin-11-amine]", "values": [{"measurement": "enhancement of antibiotic suppression of intracellular Salmonella", "setting": "[1]", "result": "can enhance the suppression caused by these antibiotics"}, {"measurement": "ROS levels (H2DCFDA signal) in infected macrophages", "setting": "[2]", "result": "did not observe any significant change"}, {"measurement": "intracellular replication of multidrug-resistant S. typhimurium isolates", "setting": "[3]", "result": "remained susceptible"}, {"measurement": "IC50", "setting": "RAW264.7", "result": 28.7, "unit": "µM"}, {"measurement": "inhibitory effect on growth of bacteria in medium", "setting": "S. typhimurium", "result": "did not show significant inhibitory effects"}, {"measurement": "viability of intracellular Salmonella compared to mock-treated cells, combination of 3-MA and SW14", "setting": "[4]; 10 mM 3-MA 1 h, then 0.5 μM SW14 24 hours", "result": 36.8, "unit": "%"}, {"measurement": "viability at 0.5 µM", "setting": "[4]; Salmonella, RAW264.7, 24 h, read-out: viability of intracellular Salmonella compared to mock-treated cells", "result": 45, "unit": "%"}, {"measurement": "susceptibility of S. typhimurium to H2O2 after SW14 treatment, LB broth", "setting": "[5]; 0.5 μM SW14, LB broth", "result": "not in LB broth"}, {"measurement": "susceptibility of S. typhimurium to H2O2 after SW14 treatment, LPM medium", "setting": "[5]; 0.5 μM SW14, LPM medium", "result": "significantly increasing"}, {"measurement": "susceptibility of intracellular Salmonella to SW14 after knockdown of Atg7", "setting": "[6]", "result": "more susceptible"}, {"measurement": "intracellular proliferation of ciprofloxacin-resistant isolates", "setting": "[7]", "result": "still highly sensitive"}, {"measurement": "Selectivity ratio (IC50/EC50)", "setting": "S. Typhimurium 14028; IC50 RAW264.7 / EC50 S. Typhimurium 14028", "result": 80.6}, {"measurement": "EC50", "setting": "S. Typhimurium 14028; Salmonella enterica, TYPHIMURIUM, RAW264.7, read-out: EC50 (μM) S. Typhimurium 14028, intracellular Salmonella in infected RAW264.7 cells", "result": 0.5, "unit": "µM"}, {"measurement": "EC50", "setting": "S. Typhimurium 14028; read-out: EC50 (μM) S. Typhimurium 14028, intracellular Salmonella in infected RAW264.7 cells", "result": 0.4, "unit": "µM"}, {"measurement": "suppressive effects against S. Typhimurium within macrophages in presence of ROS scavengers", "setting": "[8]", "result": "reversed"}, {"measurement": "effect on viability of intracellular Salmonella (CFU assay)", "setting": "[9]", "result": "potent suppressive effect"}]}]}
